Data taken from patent US12383585B2, “Methods of treatment of infections using bacteria” (Decoy Biosystems, Inc., priority 2018, dated 2025).

How the values were obtained:
[1] = test system: AAV/HBV (human HBV genome, genotype D); assay: AAV/HBV mouse model, HBV inhibition (Example 4); type: in vivo, C57BL/6 mouse; settings: for inhibition of HBeAg production (plasma): day 28 of dosing (Day 59 after infection)
Text: Adeno-associated virus/hepatitis B virus (AAV/HBV) is a recombinant AAV carrying replicable human HBV genome. Taking the advantage of the highly hepatotropic feature of genotype 8 AAV, the human HBV genome can be efficiently delivered to mouse liver cells. Infection of immune competent mice with AAV/HBV can result in long term HBV viremia, including release of human HBV virions, HBsAg and HBeAg into the blood, which mimics chronic HBV infection in patients. The AAV/HBV model can be used to evaluate the in vivo activity of various types of anti-HBV agents. Furthermore, this is an appropriate model for evaluation of immune modulators (see, for example Huang et al., Int. J. Onc. v39 pp1511-1519, 2011).
rAAV8-1.3HBV, genotype D, was purchased from Beijing FivePlus Molecular Medicine Institute (batch number A2018092406). The stock virus of 1×10^12 viral genome (v.g.)/mL was diluted to 5×10^11 v.g./mL with sterile phosphate-buffered saline (PBS) and 1×10^11 v.g. AAV/HBV in 200 μL was injected per 5 week old male C57BL/6 mouse 31 days prior to the initiation of dosing (day −31).
Blood samples (˜100 μL) were collected into K2-EDTA coated tubes via submandibular bleeding on days −17, −7 and −4. The samples were centrifuged at 7,000 g (4° C.) for 10 minutes for plasma collection. At least 40 μL plasma samples were prepared to determine the level of HBV-DNA by qPCR, and the levels of HBs Antigen (HBsAg) and HBe Antigen (HBeAg) by enzyme-linked immunosorbent assay (ELISA). Remaining plasma samples were stored at −80° C. for post-life assays. Based on the plasma levels of HBV DNA, HBsAg, HBeAg and body weights on days −17, −7 and −4, mice with qualified viral infection levels were selected and randomly divided into 7 groups with 5 mice in each group on day −1. All mice were evenly distributed in each group, to ensure no significant difference existed between each group in terms of HBV DNA, HBsAg, HBeAg level and body weight on day −4.
Animal groups were untreated, treated with Entecavir (ETV) at 0.005 mg/kg orally (p.o.) daily on days 0-34, Decoy at 2×10^8 killed bacteria per mouse administered tail vein i.v. on days 1, 2, 8, 9, 15, 16, 22, 23, 29 and 30, or ETV and Decoy. Plasma samples were obtained weekly an analyzed for HBV-DNA, HBsAg and HBeAg as described above.

[2] = test system: AAV/HBV (human HBV genome, genotype D); assay: AAV/HBV mouse model, long-term HBV inhibition with indomethacin (Example 5); type: in vivo, C57BL/6 mouse; settings: for inhibition of HBV DNA production (plasma): all groups given indomethacin 10 μg/mL in drinking water, ETV 0.1 mg/kg
Method: This experiment was conducted in order to determine if a non-steroidal anti-inflammatory drug (NSAID) could enhance anti-viral activity by Decoy bacteria, if the anti-viral activity of Decoy is lost after cessation of treatment, and the potential toxic effects of ETV, Decoy and ETV+Decoy treatment. The experiment was carried out as described in Example 4, except that the AAV/HBV virus was injected at day −29, relative to start of dosing. HBV-DNA, HBsAg and HBeAg levels in plasma were determined on days −15, −8 and −1, relative to start of dosing on day 0, and the ETV dose was increased to 0.1 mg/kg. In addition, all groups represented in FIGS. 3, 4, 5 and 6 were administered indomethacin (NSAID) daily (10 μg/mL in drinking water). Dosing was carried out for 5 weeks as in Example 4, with plasma levels of HBV-DNA, HBsAg and HBeAg determined weekly, as well as every other week for 27 weeks after cessation of treatment. Inhibitory activity was determined by comparing treated groups at each time point to the control (indomethacin alone) group at the same time-point by unpaired, non-parametric Mann-Whitney statistical analysis.
Upon termination, the liver from each mouse was divided into multiple sections, snap frozen in liquid nitrogen immediately upon collection and stored at −80° C. Liver sections were used for HBV DNA detection and additional sections from each mouse liver were fixed in 10% neutral buffered formalin (NB F) for about 24 hours, then transferred for routine dehydration and paraffin embedding. Paraffin blocks were sectioned for hematoxylin-eosin (H&E) staining and pathology analysis, as well immunohistochemistry (IHC) analysis for HBsAg and HBcAg.

[3] = test system: human peripheral blood mononuclear cells (PBMCs); assay: Induction of cytokine secretion from human PBMCs in vitro (Luminex); type: cell-based; settings: full titration peak mean
Method: Supernatants were harvested by centrifuging plates at 1,000 rpm for 10 minutes and stored at −80° C. Luminex analysis of cytokine levels was carried out with Millipore Human Cytokine/Chemokine Magnetic Bead panels HCYTOMAG-60K and HSTCMAG-28SK. Levels of cytokines were interpolated off a standard curve using a […] non-linear regression analysis where the fit=(A+((B−A)/(1+(((B−E)/(E−A))*((x/C)^D))))). The interpolated data was normalized to vehicle control or unstimulated control and analyzed. PBMCs from fresh normal peripheral blood leukapheresis paks (ALLCells, Alameda, CA) were isolated using a Ficoll gradient (Ficoll-Paque PLUS, Cat #17-144-02, density 1.077+/−0.001 g/mL from GE Healthcare Bio-Sciences, Pittsburgh, PA). The bacteria vehicle was phosphate-buffered saline (PBS) with no calcium and 2 mM MgCl2.
The experiment was carried out as described for Table 1.

C=C1[C@H](CO)[C@@H](O)C[C@@H]1n1cnc2c(=O)[nH]c(N)nc21 [ETV, Entecavir]
time to significant inhibition of HBV DNA production after initiation of dosing ([1]; ETV 0.005 mg/kg p.o. daily): ≤ 3 days | mice with plasma HBV DNA down to the lower limit of quantitation (120 copies/μL plasma) ([1]; by day 28 of dosing (day 59 after infection)): 5/5 | inhibition of HBeAg production (plasma) ([1]; without indomethacin): No inhibition | inhibition of HBeAg production (plasma) ([1]; without indomethacin, listed as Entecavir): not | inhibition of HBV DNA production (plasma) ([1]; vs no treatment group, ETV 0.005 mg/kg p.o. daily, Decoy 2×10^8 killed bacteria i.v. twice weekly): significantly inhibited | inhibition of HBsAg production (plasma) ([1]; without indomethacin): No inhibition | inhibition of HBV DNA at termination (day 253) ([2]; 27 weeks after cessation of treatment, in the presence of indomethacin): Statistically significant inhibition of HBV DNA was lost | inhibition of HBeAg expression in mouse livers ([2]; 27 weeks after the cessation of treatment, in the presence of indomethacin): not | body weight loss ([2]; ETV treatment 0.1 mg/kg, with indomethacin): No body weight loss | inhibition of HBV DNA production (plasma) [2]: inhibited

COc1ccc2c(c1)c(CC(=O)O)c(C)n2C(=O)c1ccc(Cl)cc1 [indomethacin]
inhibition of HBV DNA production (plasma) [2]: did not inhibit

CpG ODN 2006
GM-CSF induction [3]: 0 pg/mL | IFNγ induction [3]: 7 pg/mL | IL-1β induction [3]: 1 pg/mL | IL-6 induction [3]: 241 pg/mL | IL-8 induction [3]: 2,436 pg/mL | IL-10 induction [3]: 374 pg/mL | IL-12p70 induction [3]: 4 pg/mL | TNFα induction [3]: 51 pg/mL

Poly(I:C)
GM-CSF induction [3]: 0 pg/mL | IFNγ induction [3]: 103 pg/mL | IL-1β induction [3]: 22 pg/mL | IL-6 induction [3]: 129 pg/mL | IL-8 induction [3]: 1,452 pg/mL | IL-10 induction [3]: 8 pg/mL | IL-12p70 induction [3]: 18 pg/mL | TNFα induction [3]: 208 pg/mL
